Publication PMC11071220, “Identification and characterization of a new potent inhibitor targeting CtBP1/BARS in melanoma cells” (Journal of Experimental & Clinical Cancer Research : CR, 2024)

Legend:
CtBP1/BARS [1] = target: T1, CtBP1/BARS (Rattus norvegicus, UniProt Q9Z2F5); experiment: size-exclusion chromatography (dimer to tetramer shift, […] NAD+); pull-down of self-association; type: biochemical
CtBP1/BARS [2] = target: T1, CtBP1/BARS; experiment: ITC; also tryptophan fluorescence quenching (Kd […]); type: binding; parameters: His-CtBP1/BARS wt, full-length (CtBP1-S/BARS)

SMILES	size-exclusion chromatography (dimer to tetramer shift, 100 μM NAD+); pull-down (CtBP1/BARS [1])	Kd (CtBP1/BARS [2])
NC(=O)c1ccc[n+]([C@@H]2O[C@H](COP(=O)([O-])OP(=O)(O)OC[C@H]3O[C@@H](n4cnc5c(N)ncnc54)[C@H](O)[C@@H]3O)[C@@H](O)[C@H]2O)c1 [NAD+]	The addition of NAD^+ shifts the elution patterns so that the majority of CtBP1/BARS elutes as a tetramer	
O=C(Nc1ccc([N+](=O)[O-])cc1)Nc1ccc(S(=O)(=O)Nc2ccc(Cl)c(Cl)c2)cc1 [Comp.11, N-(3,4-dichlorophenyl)-4-{[(4-nitrophenyl)carbamoyl]amino}benzenesulfonamide]		0.66 ± 0.2 µM
